Data reported in ChEMBL document CHEMBL4376816, “Discovery of the Oral Leukotriene C4 Synthase Inhibitor (1S,2S)-2-({5-[(5-Chloro-2,4-difluorophenyl)(2-fluoro-2-methylpropyl)amino]-3-methoxypyrazin-2-yl}carbonyl)cyclopropanecarboxylic Acid (AZD9898) as a New Treatment for Asthma” (J Med Chem, 2019).
The source made the active and inactive calls. No cut-off for these calls is given here.

Legend:
[1] = Toxicity in rat assessed as liver hypertrophy at 100 mg/kg, po after 7 days; type: organism-based; settings: in vivo
[2] = Volume of distribution at steady state in cynomolgus monkey at 1 mg/kg, iv or 2 mg/kg, po after 48 hrs; type: ADME, organism-based, Macaca fascicularis; settings: in vivo, read-out: Vdss
[3] = Clearance in Han Wistar rat at 0.5 mg/kg, iv or 1 mg/kg, po after 24 hrs; type: ADME, organism-based; settings: in vivo
[4] = molecular target: T1, Solute carrier organic anion transporter family member 1B1 (Homo sapiens, UniProt Q9Y6L6); assay: Inhibition of OATP1B1 (unknown origin) expressed in HEK293 cells measured after 0.5 to 20 mins by scintillation counting analysis; type: ADME, cell-based
T1 sequence (Q9Y6L6 whole entry): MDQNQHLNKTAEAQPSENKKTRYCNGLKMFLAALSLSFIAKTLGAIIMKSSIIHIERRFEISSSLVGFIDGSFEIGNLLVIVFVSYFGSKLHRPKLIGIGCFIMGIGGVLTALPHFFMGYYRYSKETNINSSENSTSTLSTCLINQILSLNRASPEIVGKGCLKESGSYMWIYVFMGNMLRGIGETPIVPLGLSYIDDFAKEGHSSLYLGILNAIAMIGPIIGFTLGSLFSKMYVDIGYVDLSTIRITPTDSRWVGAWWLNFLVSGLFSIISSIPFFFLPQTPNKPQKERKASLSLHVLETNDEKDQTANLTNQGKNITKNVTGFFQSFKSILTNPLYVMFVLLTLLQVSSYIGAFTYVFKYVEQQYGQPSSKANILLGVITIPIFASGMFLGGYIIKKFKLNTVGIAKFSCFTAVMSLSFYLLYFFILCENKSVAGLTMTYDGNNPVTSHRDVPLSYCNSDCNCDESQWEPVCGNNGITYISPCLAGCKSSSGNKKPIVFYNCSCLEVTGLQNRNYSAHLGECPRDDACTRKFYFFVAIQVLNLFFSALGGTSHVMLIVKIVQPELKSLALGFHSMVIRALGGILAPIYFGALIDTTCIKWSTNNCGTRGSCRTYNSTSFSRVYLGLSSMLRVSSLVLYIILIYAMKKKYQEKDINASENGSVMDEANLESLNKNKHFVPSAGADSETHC

[5] = molecular target: Potassium voltage-gated channel subfamily E member 1 (Homo sapiens, UniProt P15382); assay: Inhibition of human minK expressed in CHOK1 cells at < 33 uM at -80 mV holding potential by Ionwork-based analysis; type: cell-based
Blood [6] = assay: Effect on arachidonic acid pathway in calcium ionophore A23187-stimulated asthmatic human whole blood assessed as increase in lipoxin level preincubated for 30 mins followed by calcium ionophore A23187 stimulation and measured after 60 mins by LC-MS analysis; type: functional, tissue-based
[7] = molecular target: Sodium channel protein type 5 subunit alpha (Homo sapiens, UniProt Q14524); assay: Inhibition of human Nav1.5 expressed in CHOK1 cells at < 33 uM at -90 mV holding potential by Ionwork-based analysis; type: cell-based
[8] = Fraction unbound in cynomolgus monkey plasma by equilibrium dialysis based LC-MS analysis; type: ADME, cell-free, Macaca fascicularis
[9] = Apparent permeability across apical to basolateral side in human Caco2 cells; settings: Caco-2
Cytochrome P450 2D6 = Cytochrome P450 2D6 (Homo sapiens, UniProt P10635); assay: Inhibition of recombinant human CYP2D6 using coumarin based substrate by fluorescence assay; type: ADME
[10] = Clearance in Beagle dog at 1 mg/kg, iv infusion or 2 mg/kg, po via gavage after 48 hrs; type: ADME, organism-based, Canis lupus familiaris; settings: in vivo
[11] = Octanol/Sodium phosphate buffer partition coefficient, log D of compound at pH 7.4 at 1 mg incubated for overnight under shaking condition by LC-MS/MS analysis; type: physicochemical
[12] = molecular target: T2, A-type voltage-gated potassium channel KCND3 (Homo sapiens, UniProt Q9UK17); assay: Inhibition of human Kv4.3 expressed in CHOK1 cells at < 33 uM at -80 mV holding potential by Ionwork-based analysis; type: cell-based
T2 sequence (Q9UK17 whole entry): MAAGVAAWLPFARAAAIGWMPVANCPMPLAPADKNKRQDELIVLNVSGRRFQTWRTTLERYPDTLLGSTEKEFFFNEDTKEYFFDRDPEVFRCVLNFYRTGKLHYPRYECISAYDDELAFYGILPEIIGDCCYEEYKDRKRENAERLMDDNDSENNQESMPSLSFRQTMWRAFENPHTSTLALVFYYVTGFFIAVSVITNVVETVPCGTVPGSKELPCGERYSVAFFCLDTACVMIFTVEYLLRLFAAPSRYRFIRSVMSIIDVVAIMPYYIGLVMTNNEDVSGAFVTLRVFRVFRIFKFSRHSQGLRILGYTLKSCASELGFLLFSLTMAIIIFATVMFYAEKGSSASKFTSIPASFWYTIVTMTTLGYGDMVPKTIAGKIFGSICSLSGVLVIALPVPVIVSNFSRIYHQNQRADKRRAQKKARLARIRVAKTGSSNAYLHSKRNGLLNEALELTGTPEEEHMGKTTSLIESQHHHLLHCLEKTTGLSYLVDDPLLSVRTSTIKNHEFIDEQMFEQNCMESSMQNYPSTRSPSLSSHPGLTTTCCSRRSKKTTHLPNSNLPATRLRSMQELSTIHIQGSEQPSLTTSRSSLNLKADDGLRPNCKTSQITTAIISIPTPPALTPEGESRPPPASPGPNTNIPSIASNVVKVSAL

[13] = Effective half life in cynomolgus monkey at 1 mg/kg, iv or 2 mg/kg, po after 48 hrs; type: ADME, organism-based, Macaca fascicularis; settings: in vivo, read-out: t1/2eff (converted)
[14] = molecular target: T3, Leukotriene C4 synthase (Homo sapiens) (UniProt Q16873); assay: Inhibition of LTC4S in asthmatic human whole blood assessed as inhibition of calcium ionophore A23187 stimulated cysteinyl leukotrienes production preincuabted for 30 mins followed by calcium ionophore stimulation and measured after 10 mins by LC-MS analysis; type: tissue-based
T3 sequence (whole entry): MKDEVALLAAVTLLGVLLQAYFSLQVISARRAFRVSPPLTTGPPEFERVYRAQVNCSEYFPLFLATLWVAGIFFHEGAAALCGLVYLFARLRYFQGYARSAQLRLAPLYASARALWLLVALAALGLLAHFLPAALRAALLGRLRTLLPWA

[15] = Volume of distribution at steady state in Han Wistar rat at 0.5 mg/kg, iv or 1 mg/kg, po after 24 hrs; type: ADME, organism-based; settings: in vivo, read-out: Vdss
Blood [16] = assay: Effect on arachidonic acid pathway in calcium ionophore A23187-stimulated healthy human whole blood assessed as increase in lipoxin level preincubated for 30 mins followed by calcium ionophore A23187 stimulation and measured after 60 mins by LC-MS analysis; type: functional, tissue-based
Blood [17] = assay: Preservation of LXA4 level in calcium ionophore A23187-stimulated healthy human whole blood preincubated for 30 mins followed by calcium ionophore A23187 stimulation and measured after 60 mins by LC-MS analysis; type: functional, tissue-based
[18] = molecular target: T3, Leukotriene C4 synthase (Homo sapiens)
[19] = Fraction unbound in human plasma by equilibrium dialysis based LC-MS analysis; type: ADME, cell-free
[20] = AUC in po dosed rat at NOAEL measured after 7 days; type: ADME, organism-based; settings: in vivo
[21] = Fraction unbound in Sprague-Dawley rat plasma by equilibrium dialysis based LC-MS analysis; type: ADME, cell-free

Cytochrome P450 2D6, sequence (P10635 whole entry, the tested form may be a part): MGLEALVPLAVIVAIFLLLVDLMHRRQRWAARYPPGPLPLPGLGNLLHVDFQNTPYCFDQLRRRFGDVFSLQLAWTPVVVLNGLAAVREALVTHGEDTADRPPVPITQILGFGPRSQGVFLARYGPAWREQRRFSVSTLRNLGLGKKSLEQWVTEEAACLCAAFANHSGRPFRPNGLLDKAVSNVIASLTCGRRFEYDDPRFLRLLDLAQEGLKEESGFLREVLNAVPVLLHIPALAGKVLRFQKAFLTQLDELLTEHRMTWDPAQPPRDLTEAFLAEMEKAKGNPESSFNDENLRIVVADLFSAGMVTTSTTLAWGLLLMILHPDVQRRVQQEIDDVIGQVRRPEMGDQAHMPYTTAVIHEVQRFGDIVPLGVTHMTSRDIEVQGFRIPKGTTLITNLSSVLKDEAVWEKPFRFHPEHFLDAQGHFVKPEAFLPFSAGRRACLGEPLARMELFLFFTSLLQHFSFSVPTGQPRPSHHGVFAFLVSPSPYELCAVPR
Sodium channel protein type 5 subunit alpha, sequence (Q14524 whole entry): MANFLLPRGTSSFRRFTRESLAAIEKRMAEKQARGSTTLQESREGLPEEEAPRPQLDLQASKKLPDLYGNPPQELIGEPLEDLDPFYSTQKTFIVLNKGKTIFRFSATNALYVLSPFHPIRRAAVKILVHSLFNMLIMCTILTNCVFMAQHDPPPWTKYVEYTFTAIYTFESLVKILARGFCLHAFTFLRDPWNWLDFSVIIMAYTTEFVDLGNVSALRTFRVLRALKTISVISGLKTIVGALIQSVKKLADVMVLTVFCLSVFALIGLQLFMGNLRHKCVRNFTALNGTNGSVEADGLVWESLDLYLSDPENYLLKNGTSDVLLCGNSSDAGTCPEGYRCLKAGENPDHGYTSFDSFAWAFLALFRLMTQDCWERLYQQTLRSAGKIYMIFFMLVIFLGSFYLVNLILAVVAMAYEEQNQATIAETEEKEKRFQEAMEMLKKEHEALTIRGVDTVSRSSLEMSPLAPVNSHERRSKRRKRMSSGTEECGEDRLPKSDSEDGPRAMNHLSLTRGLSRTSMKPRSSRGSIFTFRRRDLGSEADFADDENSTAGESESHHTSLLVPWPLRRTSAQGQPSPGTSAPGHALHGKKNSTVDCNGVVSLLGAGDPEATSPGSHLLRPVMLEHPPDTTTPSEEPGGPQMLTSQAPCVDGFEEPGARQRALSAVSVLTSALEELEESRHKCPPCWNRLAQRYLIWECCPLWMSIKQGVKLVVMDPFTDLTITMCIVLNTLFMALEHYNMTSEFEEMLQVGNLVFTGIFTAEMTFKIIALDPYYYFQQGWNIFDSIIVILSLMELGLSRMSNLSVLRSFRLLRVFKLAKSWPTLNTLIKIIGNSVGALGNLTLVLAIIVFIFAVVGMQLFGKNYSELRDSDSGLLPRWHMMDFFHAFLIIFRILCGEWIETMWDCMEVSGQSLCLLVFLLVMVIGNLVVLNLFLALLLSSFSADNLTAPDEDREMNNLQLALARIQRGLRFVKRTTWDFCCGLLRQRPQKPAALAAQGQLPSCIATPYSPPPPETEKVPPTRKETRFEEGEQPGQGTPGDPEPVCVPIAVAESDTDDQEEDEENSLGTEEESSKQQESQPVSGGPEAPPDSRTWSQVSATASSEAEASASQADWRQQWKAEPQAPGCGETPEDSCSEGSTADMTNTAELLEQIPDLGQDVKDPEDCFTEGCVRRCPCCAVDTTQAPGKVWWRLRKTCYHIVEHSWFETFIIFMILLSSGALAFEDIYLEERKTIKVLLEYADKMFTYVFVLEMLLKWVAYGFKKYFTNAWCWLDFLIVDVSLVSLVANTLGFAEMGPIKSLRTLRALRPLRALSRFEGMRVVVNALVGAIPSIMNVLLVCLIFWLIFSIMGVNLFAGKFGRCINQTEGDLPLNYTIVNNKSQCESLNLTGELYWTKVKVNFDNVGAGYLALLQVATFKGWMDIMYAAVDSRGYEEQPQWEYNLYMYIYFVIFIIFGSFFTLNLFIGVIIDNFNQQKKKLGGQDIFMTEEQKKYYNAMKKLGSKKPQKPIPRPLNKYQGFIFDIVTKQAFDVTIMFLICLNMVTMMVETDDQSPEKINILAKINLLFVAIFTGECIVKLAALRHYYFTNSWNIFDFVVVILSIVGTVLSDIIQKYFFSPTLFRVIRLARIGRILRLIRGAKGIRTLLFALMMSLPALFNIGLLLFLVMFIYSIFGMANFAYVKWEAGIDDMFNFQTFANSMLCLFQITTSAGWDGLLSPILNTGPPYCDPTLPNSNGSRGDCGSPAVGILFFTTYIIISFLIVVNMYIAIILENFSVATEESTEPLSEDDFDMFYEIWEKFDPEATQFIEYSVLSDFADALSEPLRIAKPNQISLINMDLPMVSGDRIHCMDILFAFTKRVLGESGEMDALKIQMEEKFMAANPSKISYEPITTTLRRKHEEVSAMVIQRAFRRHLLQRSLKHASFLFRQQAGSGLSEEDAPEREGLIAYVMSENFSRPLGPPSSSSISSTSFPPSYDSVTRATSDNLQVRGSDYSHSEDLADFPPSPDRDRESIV

In the case of `COc1nc(N(CC(C)(C)F)c2cc(Cl)c(F)cc2F)cnc1C(=O)[C@H]1C[C@@H]1C(=O)O` [AZD-9898], the Activity [1] is reported as “Non-Toxic”, the Vd [2] is reported as 0.6 L/kg and the clearance [3] is reported as 2.3 mL/min/kg. For the same compound, the INH [4] was 3.2 µM, the “inhibition (INH)” value [5] was “Not Active” and the Activity (Blood [6]) was “Dose-dependent effect”. For the same compound, the “inhibition (INH)” value [7] was “Not Active”, the fraction unbound [8] was 0.03 and the Papp A→B [9] was 61 ×10⁻⁶ cm/s. The IC50 (Cytochrome P450 2D6) was over 30 µM, the clearance [10] was 1.8 mL/min/kg and the logD [11] was 1.1. The “inhibition (INH)” value [12] was “Not Active”, the half-life [13] was 12 h and the inhibition [14] was “Active”. For the same compound, the Vd [15] was 5.3 L/kg, the Activity (Blood [16]) was “Dose-dependent effect” and the Activity (Blood [17]) was “Dose-dependent effect”. The fIC50 [18] was 6.2 nM, the fraction unbound [19] was 0.036 and the AUC [20] was 4500 µM·h. The fraction unbound [21] was 0.025.
